In brackets after ≈: the same amount, converted by molar mass.
Tests used:
Experiment in all cases: In-vitro antifungal spectrum and MIC, clinical isolates
Type in all cases: cell-based
[1] = test system: Candida albicans; conditions: for MIC: in µg/mL (unit assumed)
Protocol: (§1) The experiments were carried out to determine antifungal spectrum and MIC of Nanosomal Amphotericin B vis-à-vis commonly used antifungals viz.
(§2) Amphotericin B, Voriconazole, Itraconazole and Fluconazole to ascertain efficacy against pathogenic yeasts and moulds including dermatophytes.

[2] = test system: Cladophialophora bantiana; conditions: for MIC: in µg/mL (unit assumed)
Protocol: as §1, §2

[3] = test system: Apophysomyces elegans; conditions: for MIC: unit assumed
Protocol: as §1, §2

[4] = test system: Cryptococcus neoformans; conditions: for MIC: in µg/mL (unit assumed)
Protocol: as §1, §2

[5] = test system: Phialophora verrucosa; conditions: for MIC: unit assumed
Protocol: as §1, §2

[6] = test system: Rhizopus arrhizus, R. pusilus; conditions: for MIC: in µg/mL (unit assumed)
Protocol: as §1, §2

[7] = test system: Trichophyton mentagrophytes; conditions: for MIC: in µg/mL (unit assumed)
Protocol: as §1, §2

[8] = test system: Paeciliomyces spp.; conditions: for MIC: in µg/mL (unit assumed)
Protocol: as §1, §2

[9] = test system: Microsporum gypseum; conditions: for MIC: in µg/mL (unit assumed)
Protocol: as §1, §2

[10] = test system: Fusarium spp.; conditions: for MIC: in µg/mL (unit assumed)
Protocol: as §1, §2

[11] = test system: Curvularia spp.; conditions: for MIC: in µg/mL (unit assumed)
Protocol: as §1, §2

[12] = test system: Pseudallescheria boydii; conditions: for MIC: in µg/mL (unit assumed)
Protocol: as §1, §2

[13] = test system: Aspergillus oryzae; conditions: for MIC: in µg/mL (unit assumed)
Protocol: as §1, §2

[14] = test system: Penicillium marneffei; conditions: for MIC: in µg/mL (unit assumed)
Protocol: as §1, §2

[15] = test system: Sporothrix schenckii; conditions: for MIC: in µg/mL (unit assumed)
Protocol: as §1, §2

[16] = test system: Scytalidum dimidatum; conditions: for MIC: unit assumed
Protocol: as §1, §2

[17] = test system: Absidia corymbifera; conditions: for MIC: in µg/mL (unit assumed)
Protocol: as §1, §2

[18] = test system: Trichophyton rubrum; conditions: for MIC: in µg/mL (unit assumed)
Protocol: as §1, §2

[19] = test system: Mucor spp.; conditions: for MIC: in µg/mL (unit assumed)
Protocol: as §1, §2

[20] = test system: Alternaria spp.; conditions: for MIC: in µg/mL (unit assumed)
Protocol: as §1, §2

[21] = test system: Aspergillus flavus, A. fumigatus; conditions: for MIC: in µg/mL (unit assumed)
Protocol: as §1, §2

With C[C@@H]1[C@H](O)[C@@H](C)/C=C/C=C/C=C/C=C/C=C/C=C/C=C/[C@H](O[C@@H]2O[C@H](C)[C@@H](O)[C@H](N)[C@@H]2O)C[C@@H]2O[C@](O)(C[C@@H](O)C[C@@H](O)[C@H](O)CC[C@@H](O)C[C@@H](O)CC(=O)O[C@H]1C)C[C@H](O)[C@H]2C(=O)O [Amphotericin B] the Susceptibility category [1] was “Active”, the MIC [1] was 0.125-1 and the Susceptibility category [2] was “Active”. For the same compound, the MIC [2] was 0.5-1, the Susceptibility category [3] was “Active” and the MIC [3] was 2 µg/mL (≈ 2.16 µM). The Susceptibility category [4] was “Active”, the MIC [4] was 0.25-1 and the Susceptibility category [5] was “Intermediate”. The MIC [5] was 4 µg/mL (≈ 4.33 µM), the Susceptibility category [6] was “Active” and the MIC [6] was 0.5-2. For the same compound, the Susceptibility category [7] was “Active”, the MIC [7] was 0.5-2 and the Susceptibility category [8] was “Intermediate”. For the same compound, the MIC [8] was 1-4, the Susceptibility category [9] was “Active” and the MIC [9] was 0.5. For the same compound, the Susceptibility category [10] was “Active”, the MIC [10] was 0.5-1 and the Susceptibility category [11] was “Active”. The MIC [11] was 0.125-1, the Susceptibility category [12] was “Active” and the MIC [12] was 0.5-1. The Susceptibility category [13] was “Intermediate”, the MIC [13] was 2-4 and the Susceptibility category [14] was “Active”. The MIC [14] was 0.25-1, the Susceptibility category [15] was “Active” and the MIC [15] was 0.5-1. The Susceptibility category [16] was “Active”, the MIC [16] was 0.5 µg/mL (≈ 0.541 µM) and the Susceptibility category [17] was “Active”. The MIC [17] was 0.5, the Susceptibility category [18] was “Active” and the MIC [18] was 0.25-1. For the same compound, the Susceptibility category [19] was “Active”, the MIC [19] was 1-2 and the Susceptibility category [20] was “Active”. The MIC [20] was 1-2, the Susceptibility category [21] was “Active” and the MIC [21] was 0.5-2.
With OC(Cn1cncn1)(Cn1cncn1)c1ccc(F)cc1F [Fluconazole] the Susceptibility category [1] was “Variable”, the MIC [1] was 0.125-64 and the Susceptibility category [2] was “Resistant”. The MIC [2] was 32-64, the Susceptibility category [3] was “Resistant” and the MIC [3] was 64 µg/mL (≈ 209 µM). The Susceptibility category [4] was “Variable”, the MIC [4] was 0.125-16 and the Susceptibility category [5] was “Resistant”. The MIC [5] was 16 µg/mL (≈ 52.2 µM), the Susceptibility category [6] was “Resistant” and the MIC [6] was 8-64. The Susceptibility category [7] was “Resistant”, the MIC [7] was 32-64 and the Susceptibility category [8] was “Resistant”. The MIC [8] was 64, the Susceptibility category [9] was “Resistant” and the MIC [9] was 64. The Susceptibility category [10] was “Resistant”, the MIC [10] was 16-64 and the Susceptibility category [11] was “Resistant”. For the same compound, the MIC [11] was 8-64, the Susceptibility category [12] was “Resistant” and the MIC [12] was 8-32. The Susceptibility category [13] was “Resistant”, the MIC [13] was 64 and the Susceptibility category [14] was “Resistant”. The MIC [14] was 32-64, the Susceptibility category [15] was “Resistant” and the MIC [15] was 8-64. The Susceptibility category [16] was “Resistant”, the MIC [16] was 32 µg/mL (≈ 104 µM) and the Susceptibility category [17] was “Resistant”. The MIC [17] was 64, the Susceptibility category [18] was “Variable/Resistant” and the MIC [18] was 4-32. For the same compound, the Susceptibility category [19] was “Resistant”, the MIC [19] was 64 and the Susceptibility category [20] was “Resistant”. For the same compound, the MIC [20] was 32-64, the Susceptibility category [21] was “Resistant” and the MIC [21] was 32-64.
For CCC(C)n1ncn(-c2ccc(N3CCN(c4ccc(OCC5COC(Cn6cncn6)(c6ccc(Cl)cc6Cl)O5)cc4)CC3)cc2)c1=O (centres unmarked) [Itraconazole], the MIC [1] was 0.03-8, the Susceptibility category [2] was “Active” and the MIC [2] was 0.5-2. For the same compound, the MIC [3] was 16 µg/mL (≈ 22.7 µM), the MIC [4] was 0.03-4 and the MIC [5] was 16 µg/mL (≈ 22.7 µM). The MIC [6] was 8-16, the Susceptibility category [7] was “Active” and the MIC [7] was 1-2. For the same compound, the MIC [8] was 0.06-16, the Susceptibility category [9] was “Active” and the MIC [9] was 0.25-0.5. The MIC [10] was 8-32, the MIC [11] was 8-16 and the Susceptibility category [12] was “Active”. The Susceptibility category [13] was “Active”, the MIC [13] was 0.125-0.5 and the Susceptibility category [14] was “Active”. The MIC [14] was 1-2, the MIC [15] was 0.03-16 and the MIC [16] was 16 µg/mL (≈ 22.7 µM). For the same compound, the MIC [17] was 16, the MIC [18] was 8-16 and the MIC [19] was 0.03-8. For the same compound, the Susceptibility category [20] was “Active”, the MIC [20] was 1-2 and the MIC [21] was 0.03-16.
C[C@@H](c1ncncc1F)[C@](O)(Cn1cncn1)c1ccc(F)cc1F [Voriconazole] was tested, and the Susceptibility category [1] was “Variable”, the MIC [1] was 0.03-8 and the Susceptibility category [2] was “Active”. For the same compound, the MIC [2] was 0.25-2, the Susceptibility category [3] was “Intermediate” and the MIC [3] was 8 µg/mL (≈ 22.9 µM). For the same compound, the Susceptibility category [4] was “Variable”, the MIC [4] was 0.03-16 and the Susceptibility category [5] was “Active”. For the same compound, the MIC [5] was 1 µg/mL (≈ 2.86 µM), the Susceptibility category [6] was “Variable” and the MIC [6] was 1-8. The Susceptibility category [7] was “Active”, the MIC [7] was 0.5-1 and the Susceptibility category [8] was “Variable”. For the same compound, the MIC [8] was 0.125-8, the Susceptibility category [9] was “Active” and the MIC [9] was 0.125-0.5. For the same compound, the Susceptibility category [10] was “Intermediate”, the MIC [10] was 0.5-4 and the Susceptibility category [11] was “Active”. For the same compound, the MIC [11] was 1-2, the Susceptibility category [12] was “Active” and the Susceptibility category [13] was “Intermediate”. For the same compound, the MIC [13] was 0.5-4, the Susceptibility category [14] was “Active” and the MIC [14] was 0.25-1. For the same compound, the Susceptibility category [15] was “Variable”, the MIC [15] was 0.03-16 and the Susceptibility category [16] was “Active”. For the same compound, the MIC [16] was 0.5 µg/mL (≈ 1.43 µM), the Susceptibility category [17] was “Variable” and the MIC [17] was 2-16. The Susceptibility category [18] was “Active”, the MIC [18] was 0.25-0.5 and the Susceptibility category [19] was “Resistant”. For the same compound, the MIC [19] was 8-16, the Susceptibility category [20] was “Active” and the MIC [20] was 0.5-1. For the same compound, the Susceptibility category [21] was “Active” and the MIC [21] was 0.125-1.
